Starred links: 1 amine or outer side, 2 acyl side, 3 side chain; linkers in the order of their positions; H or OH if unused. Non-standard residues stand in square brackets, D forms with d. No end group written: not given here. *: point of attachment. βGlcAc4 = CC(=O)OC[C@H]1O[C@@H](*)[C@H](OC(C)=O)[C@@H](OC(C)=O)[C@@H]1OC(C)=O; Tyr(Me) = O-methyl Tyr, COc1ccc(C[C@H](N[*:1])C(=O)[*:2])cc1; Tyr(3,5-I2) = N[C@@H](Cc1cc(I)c(O)c(I)c1)C(=O)O; dGla = N[C@H](CC(C(=O)O)C(=O)O)C(=O)O; Dap = NC[C@H](N)C(=O)O; βAla = NCCC(=O)O
What was measured:
MCF-7 cells = test: MCF-7 cell stimulation (cell growth) assay, cell counts by trypan blue exclusion; type: cell-based, human; conditions: for reversal of leptin-induced cell stimulation: leptin present; for antagonistic activity on leptin-induced MCF-7 cell proliferation: in the presence of exogenous leptin; for agonistic activity on MCF-7 cells: without leptin; for Relative stimulation (%) of MCF-7 cells, No leptin added: no exogenous leptin; for MCF-7 cell count increase: no leptin
Excerpt: (§1) For the evaluation of the biological activity of the synthesized leptin Site III peptide fragments, human cell lines were selected in which the ObR expression level is known. Two ObR-positive human cell models were used: MCF-7 breast cancer cells and DU-45 prostate cancer cells. Both cell lines express ObR, and leptin and leptin analogues stimulate their growth (C. Garofalo, et al., Clin. Cancer Res., 2004, 10, 6466-6475; C. Garofalo, et al., Clin. Cancer Res., 2006, 12, 1447-1453). Normal mammary epithelial MCF-10 cells lacking ObR were used as a negative control (X. Hu, et al., J. Natl. Cancer Inst., 2002, 94, 1704-1711).
Biological activity of the Site III peptides was assayed as follows. MCF-7 cells were stimulated with 6 nM full-sized leptin. The smaller leptin fragments and analogs were added to the cell culture at a concentration of 10 nM, 100 nM or 1 μM. Leptin at […] concentration stimulated MCF-7 cell growth by approximately 40%, in line with previous observations (C. Garofalo, et al., Clin. Cancer Res., 2004, 10, 6466-6475). All Site III peptides bound to the extracellular domain of ObR as documented by dot-blot or Western-blot analysis. […] In fact, it reversed leptin induced stimulation of MCF-7 cells at as low as 10 nM peptide concentration, with an additional 50% reduction in cell counts at 1 μM. When the assay was run at a more reliably measurable 1 μM peptide concentration, a consistent 6% decrease in cell numbers could be observed compared to the leptin only samples. In summary, in the presence of exogenously added full-sized leptin these assays verified the strong antagonist activity of the Site III Ala,Ala mutant.
(§2) The cell stimulation activity of the Site III peptides was assayed as follows. Human leptin was purchased from R&D Systems and used at a concentration of 100 ng/mL (approximately 6 nM). MCF-7 and DU-45 cells naturally expressing ObR were grown in a standard medium DMEM:F12 plus 5% fetal bovine serum. MCF-10 was grown in serum-free mammalian epithelial growth medium supplemented with 100 ng/mL cholera toxin. Seventy percent confluent cultures were synchronized in serum-free medium (DMEM plus 10 μM FeSO4, plus 0.5% albumin) for 24 h and then treated with leptin and/or peptides (different doses) for 5 days. Cell counts before and after treatment were determined by counting the cells using trypan blue exclusion. All assays were conducted in triplicate and repeated at least twice.

[1] = tested on: astrocytes, brain capillary endothelial cells; test: In vitro model of blood-brain-barrier penetration (Transwell cell layers); type: in vitro ADME, human; conditions: 0.1 mM peptide in upper compartment
Excerpt: To confirm the ability of the E1 peptides to cross the blood-brain barrier, penetration of the protected (E1Ac) and free (E1Free) glycopeptides across confluent layers of astrocytes, brain endothelial cells, or a double layer of these two cell types was examined, in comparison with the Site III Ala,Ala non-glycosylated analog.
A confluent monolayer of human astrocytes or brain capillary endothelial cells, or a dual layer of both cell types (astrocytes first, followed by endothelial cells) were grown at 37° C. on polycarbonate filters (Costar, Transwell, 0.4 μm) that were pretreated with collagen. Under these conditions, the endothelial cells retain the characteristics of the blood-brain-barrier, which include complex tight junctions, low rates of pinocytosis and low enzyme levels (S. Lundquist, et al., Pharm. Res., 2002, 19, 976-981). A 0.1 mM solution of each of E1Ac, E1Free or Site III Ala,Ala was added to the upper compartment of the Transwell plates. The plates were then placed back in the incubator and samples were taken from the bottom compartments at 0, 5, 10, 30, and 120 minute intervals. The identity and quantity of peptides that had penetrated through the cell layers were subsequently analyzed by RP-HPLC and MALDI-MS.

DU-45 cells = test: DU-45 cell stimulation (proliferation) assay; type: cell-based, human
Excerpt: as §1
as §2, with “All assays were conducted in triplicate and repeated at least twice.” left out

MCF-10 cells = test: MCF-10 control cell proliferation assay (cells lacking ObR); type: cell-based, human; conditions: for effect on the proliferation of MCF-10 cells: control cell line lacking ObR
Excerpt: as §1, §2

ObR extracellular domain = target: T1, ObR extracellular domain (Homo sapiens, UniProt P48357); test: Dot-blot and ELISA-type solid-phase binding assay; conditions: dot-blot, Western-blot or ELISA; 10 and 20 μg peptide load in ELISA
T1 construct: human IgG Fc-conjugated ObR extracellular domain (R&D Systems); purchased R&D Systems
T1 sequence (P48357 22-839 limits assumed): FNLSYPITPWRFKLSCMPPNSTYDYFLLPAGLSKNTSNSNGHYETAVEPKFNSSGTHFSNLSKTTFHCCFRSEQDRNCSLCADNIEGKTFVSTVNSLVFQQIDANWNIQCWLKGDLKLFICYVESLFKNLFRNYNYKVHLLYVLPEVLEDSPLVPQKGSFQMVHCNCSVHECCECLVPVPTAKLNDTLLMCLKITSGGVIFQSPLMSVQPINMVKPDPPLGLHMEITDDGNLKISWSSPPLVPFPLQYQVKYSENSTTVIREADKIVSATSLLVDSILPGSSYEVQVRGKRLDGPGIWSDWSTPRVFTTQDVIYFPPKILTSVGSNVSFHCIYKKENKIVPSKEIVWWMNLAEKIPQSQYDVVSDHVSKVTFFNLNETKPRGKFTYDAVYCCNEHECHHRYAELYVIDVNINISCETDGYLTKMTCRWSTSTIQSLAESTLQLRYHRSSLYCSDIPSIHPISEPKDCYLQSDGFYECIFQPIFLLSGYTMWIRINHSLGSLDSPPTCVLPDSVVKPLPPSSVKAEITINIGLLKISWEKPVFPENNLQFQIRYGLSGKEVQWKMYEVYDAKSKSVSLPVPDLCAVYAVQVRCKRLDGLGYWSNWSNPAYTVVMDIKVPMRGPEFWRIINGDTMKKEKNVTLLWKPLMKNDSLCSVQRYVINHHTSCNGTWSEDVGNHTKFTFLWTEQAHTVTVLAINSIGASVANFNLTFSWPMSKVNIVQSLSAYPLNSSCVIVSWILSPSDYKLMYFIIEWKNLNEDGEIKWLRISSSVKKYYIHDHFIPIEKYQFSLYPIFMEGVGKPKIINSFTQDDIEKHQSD
Method: For dot-blot and ELISA assays, the leptin fragments were dissolved in electroblot transfer buffer (25 mM Tris and […] buffer containing 20% methanol) and were applied to either a nitrocellulose membrane or dried upon ELISA plates (Otvos, L., Jr., and Szendrei, G. I. (1996) Enzyme-linked immunosorbent assay of peptides. In: Neuropeptide Protocols (G. B. Irvine and C. H. Williams, eds.). Humana Press, Totowa, N.J., pp. 269-275). The solid surfaces were blocked with 5% BSA in a PBS-0.5% Tween 20 buffer (PBST) for 3 hours at room temperature and were subsequently incubated with 10 μg/mL solution of human IgG Fc-conjugated ObR extracellular domain (R&D Systems) dissolved in Tris-buffered saline-0.1% Tween 20 buffer (TBST) containing 1% bovine serum albumin (BSA) for 1 hour. A monoclonal goat antibody (Santa Cruz Biotechnology), specific for the N-terminus of human ObR, was added to the assay mixture, followed by addition of a horseradish peroxidase(HRP)-conjugated anti-goat IgG donkey antibody for the dot-blot assay, and HRP-conjugated anti-goat Fc mouse antibody for ELISA assay (used at a 1:15,000 dilution in PBST and 1% BSA). Between reagents, the solid surfaces were washed extensively with PBST. After washing with PBST, the membrane was treated with a chemiluminescence luminol oxidizer (NEN) for 1 min. The resultant chemiluminescence was exposed to a X-Omat blue XB-1 film (Kodak) for 10 seconds, and the exposed film was developed. The ELISA was developed using an HRP ELISA kit including tetramethylbenzidine as a substrate and sulfuric acid as a stop solution. Optical absorbance values were read at 490 nm using a microplate reader.

Gly-Tyr(I2)-Ser-Thr-D-Gla-Val-Val-D-Ala-Leu-Ser-Arg-Leu [F2]
reversal of leptin-induced cell stimulation (MCF-7 cells; 1 μM peptide): 15%
Relative stimulation (%) of MCF-7 cells, With 10 nM leptin (MCF-7 cells; 1 μM peptide, with 10 nM leptin): −15%
antagonistic activity on leptin-induced MCF-7 cell proliferation (MCF-7 cells): antagonists
agonistic activity on MCF-7 cells (MCF-7 cells): agonists

Gly-Tyr(I2)-Ser-Thr-Glu-Val-Va1-βAla-Leu-Ser-Arg-Leu (G[Tyr(3,5-I2)]STEVV[βAla]LSRL-NH2) [A4]
Relative stimulation (%) of MCF-7 cells, No leptin added (MCF-7 cells; 1 μM peptide): +102%

Leptin: Human leptin purchased from R&D Systems; full-length sequence SEQ ID NO:1
stimulation of MCF-7 cell growth (MCF-7 cells; leptin at 10 nM): approximately 40%

SGYAAEVVALSRLQGS-NH2 [Site III Ala,Ala, Ser-Gly-Tyr-Ala-Ala-Glu-Val-Val-Ala-Leu-Ser-Arg-Leu-Gln-Gly-Ser]
earliest time point at which peptide was detected in the bottom compartment [1]: 30 min

SGYSTEVVALSRLQGS [Site III 117-132]
effect on the proliferation of DU-45 cells (DU-45 cells): no effect
reduction in leptin-induced cell growth (MCF-7 cells; 1 μM peptide, in the presence of 10 nM leptin): 21%
agonistic activity on MCF-7 cells (MCF-7 cells): did not noticeably influence the cell growth
effect on the proliferation of MCF-10 cells (MCF-10 cells; listed as Site III peptide): did not demonstrate a major effect
effect on the proliferation of MCF-10 cells (MCF-10 cells; listed as site III fragment): no effect

Tyr(I2)-Serβ(GlcAc4)-Thr-Glu-Val-Val-Ala-Leu-Ser-Arg-Leu-Dap(Ac) ([Tyr(3,5-I2)]S(βGlcAc4)TEVVALSRL[Dap](Ac)-NH2) [E1Ac]
binding to the extracellular domain of ObR (ObR extracellular domain): bound
MCF-7 cell count increase (MCF-7 cells; 100 nM peptide): 54%
further increase of leptin-induced cell stimulation (MCF-7 cells; 1000 nM peptide, in the presence of 6 nM leptin): 17%
MCF-7 cell count increase (MCF-7 cells; 1000 nM peptide): 101%
overall agonist character on cells expressing ObR (MCF-7 cells; in the presence and absence of leptin): full agonists
activity on MCF-10 normal mammary epithelial cells (MCF-10 cells; 100 nM and 1000 nM peptide): inactive

Tyr(Me)-Ser-Thr-D-Gla-Val-Val-D-Ala-Leu-Ser-Arg-Leu ([Tyr(Me)]ST[dGla]VV[dA]LSRL-NH2) [D12]
reversal of leptin-induced cell stimulation (MCF-7 cells; 1 μM peptide): 43%
antagonistic activity on leptin-induced MCF-7 cell proliferation (MCF-7 cells): antagonists
agonistic activity on MCF-7 cells (MCF-7 cells): agonists

Tyr(Me)-Ser-Thr-Glu-Val-Val-βAla-Leu-Ser-Arg-Leu ([Tyr(Me)]STEVV[βAla]LSRL-NH2) [A11]
Relative stimulation (%) of MCF-7 cells, No leptin added (MCF-7 cells; 1 μM peptide): +19%
antagonistic activity on leptin-induced MCF-7 cell proliferation (MCF-7 cells): basically inactive

pyrrhocoricin: negative control antibacterial peptide with Pro-Arg-Pro repeats, equal in size with the leptin fragments (VDKGSYLPRPTPPRPIYNRN) [reference compound]
binding to the extracellular domain of ObR (ObR extracellular domain): did not bind

— patent US8470772B2, “Leptin agonist and methods of use” (Temple University—Of The Commonwealth System of Higher …, priority 2008, dated 2013)
